# Reference: publication PMC6152701, “Synthesis and Bioactivity Characterization of Scutellarein Sulfonated Derivative” (Molecules : A Journal of Synthetic Chemistry and Natural …, 2017)
# Values joined by “and” are separate entries in the source; they are usually repeats but may differ in a detail not shown here. Identical values can stand only once.
# What was measured:
# [1] = test system: Platelet-poor plasma (PPP), thrombin time; assay: Antithrombic assay: thrombin time (TT); assay type: biochemical, New Zealand white rabbits; details: rabbit PPP, compound 100 μM, mean ± SD n = 4, blank plasma 19.85 ± 1.59
# From the text: (§1) According to our previous studies, the antithrombotic activity could be estimated by measuring the prolongation of the plasma clotting time of thrombin time (TT), activated partial thromboplastin time (APTT), international normalized ratio (INR) increase in prothrombin time (PT), and reduction in fibrinogen (FIB) content.
# (§2) Male New Zealand white rabbits weighing 2–2.5 kg were obtained from the experimental animal center of Nanjing University of Chinese Medicine and were approved by Animal Ethics Committee of Nanjing University of Chinese Medicine. They were kept in plastic cages at 22 ± 2 °C with free access to pellet food and water and on a 12 h light/dark cycle. Animal welfare and experimental procedures were carried out in accordance with the guide for the care and use of laboratory animals (National Research Council of USA, 1996) and related ethical regulations of Nanjing University of Chinese Medicine. Rabbits were anesthetized with pentobarbital (50 mg/kg) and blood was drawn from the common carotid artery. Blood was collected into plastic tubes with 3.8% sodium citrate (citrate/blood: 1:9, v/v) for plasma anticoagulation. Platelet-poor plasma (PPP) was separated from blood by centrifugation at 3000 rpm for 10 min.
# (§3) TT, APTT, PT, and FIB were tested with commercial kits following the manufacturer’s instructions by a coagulometer (Model LG-PABER-I, Steellex Co., Beijing, China). All the compounds were dissolved in PBS with 20% DMSO, and the concentration was 100 μM. TT was determined by incubating 40 μL PPP solution for 3 min at 37 °C, followed by addition of 40 μL thrombin solution and 20 μL sample for 3 min at 37 °C. APTT was determined by incubating 10 μL sample solution and 50 μL PPP solution with 50 μL APTT-activating agent for 3 min at 37 °C, followed by the addition of 50 μL CaCl2. PT was determined by incubating 40 μL PPP solution for 3 min at 37 °C, followed by the addition of 40 μL thromboplastin agent and 20 μL sample. FIB was determined by incubating 10 μL PPP solution with 90 μL imidazole buffer for 3 min at 37 °C, followed by addition of 50 μL FIB agent and 10 μL sample solution. By measuring the prolongation of the plasma clotting time of thrombin time (TT), activated partial thromboplastin time (APTT), INR increase in prothrombin time (PT), and reduction in fibrinogen (FIB) content, the antithrombotic activity was assessed.
# [2] = test system: Platelet-poor plasma (PPP), fibrinogen; assay: Antithrombic assay: fibrinogen (FIB) content; assay type: biochemical, New Zealand white rabbits; details: rabbit PPP, compound 100 μM, mean ± SD n = 4, blank plasma 7.23 ± 0.38
# From the text: as §1, §2, §3
# [3] = test system: Platelet-poor plasma (PPP), activated partial thromboplastin time; assay: Antithrombic assay: activated partial thromboplastin time (APTT); assay type: biochemical, New Zealand white rabbits; details: rabbit PPP, compound 100 μM, mean ± SD n = 4, blank plasma 29.83 ± 3.86
# From the text: as §1, §2, §3
# [4] = test system: Platelet-poor plasma (PPP), prothrombin time; assay: Antithrombic assay: prothrombin time (PT); assay type: biochemical, New Zealand white rabbits; details: rabbit PPP, compound 100 μM, mean ± SD n = 4, blank plasma 5.03 ± 0.24
# From the text: as §1, §2, §3
# [5] = DPPH-radical scavenging ability assay; assay type: biochemical; details: DPPH 80 μmol/L in DMSO, 30 min in the dark
# Protocol: Antioxidants play important roles in removing free radicals, as antioxidants provide hydrogen to free radicals and prohibit the adverse reactions from destroying normal tissues. This assay was measured according to previous studies.
# The following method was adopted to evaluate the 1,1-diphenyl-2-picrylhydrazyl (DPPH) scavenging property of the products: scutellarin (1), scutellarein (2), and 3 were dissolved in DMSO to result in final concentrations ranging from 16 to 250 μmol/L, and then DPPH (80 μmol/L, 100 μL) dissolved in DMSO was added in the testing samples. After incubating for 30 min in the dark, the scavenging effect was calculated according to the following equation:Scavenging effect (%) = [(1 − (A1 − A2)/A0] × 100%(1) where A0 is the absorbance of the control (without extract), A1 is the absorbance in the presence of the extract, and A2 is the absorbance without DPPH.
# [6] = Aqueous solubility by UV spectrophotometry; assay type: physicochemical
# Protocol: Scutellarin (1) and scutellarein (2) (300 μg) were dissolved in 25 mL CH3OH, and 3 (300 μg) was dissolved in 25 mL water. […] Each tested compound (250 μg) was ultrasound dissolved in 10 mL pure water for 1 h at 25 °C, and the solutions were stood for 30 min before centrifuging at the speed of 30,000 r/min. Absorbances of each compound were obtained by UV scanning, and the aqueous solubility of all three compounds were obtained through analysis of the standard curve.
# [7] = design: method as in PMID 16997537; details: cited from earlier work
IC50 [5] [µM],Solubility ([6]; 1 h) [µg/mL],"solubility at 1 h ([6]; 25 °C, water, thermodynamic from solid) [µg/mL]",Compound,TT [1],TT ([1]; listed as scutellarein (2)) [s],FIB [2],FIB ([2]; listed as scutellarein (2)) [g/L],APTT [3],APTT ([3]; listed as scutellarein (2)) [s],PT [4],PT ([4]; listed as scutellarein (2)) [s],TT ([1]; listed as scutellarin (1)) [s],FIB ([2]; listed as scutellarin (1)) [g/L],APTT ([3]; listed as scutellarin (1)) [s],aqueous solubility [7] [µg/mL],PT ([4]; listed as scutellarin (1)) [s],"Solubility ([6]; in pure water, 25 °C, UV spectrophotometry) [µg/mL]"
16.1,6.85,,"O=c1cc(-c2ccc(O)cc2)oc2cc(O)c(O)c(O)c12 [Scutellarein (2), 5,6,7-Trihydroxy-2-(4-hydroxyphenyl)-4H-chromen-4-one]",24.48 ± 1.18 s,24.48,6.91 ± 0.12 g/L,6.91,36.12 ± 2.20 s,36.12,5.93 ± 0.81 s,5.93,,,,,,
16.8,,1950,"O=c1cc(-c2ccc(O)cc2)oc2c(S(=O)(=O)O)c(O)c(O)c(O)c12 [compound 3, 5,6,7-Trihydroxy-2-(4-hydroxyphenyl)-4-oxo-4H-chromene-8-sulfonic acid]",23.71 s and 23.71 ± 1.82 s,,7.01 g/L and 7.01 ± 0.96 g/L,,30.33 s and 30.33 ± 1.06 s,,6.33 s and 6.33 ± 1.87 s,,,,,,,

Compound,IC50 [5] [µM],Solubility ([6]; 1 h) [µg/mL],"solubility at 1 h ([6]; 25 °C, water, thermodynamic from solid) [µg/mL]",TT [1],TT ([1]; listed as scutellarein (2)) [s],FIB [2],FIB ([2]; listed as scutellarein (2)) [g/L],APTT [3],APTT ([3]; listed as scutellarein (2)) [s],PT [4],PT ([4]; listed as scutellarein (2)) [s],TT ([1]; listed as scutellarin (1)) [s],FIB ([2]; listed as scutellarin (1)) [g/L],APTT ([3]; listed as scutellarin (1)) [s],aqueous solubility [7] [µg/mL],PT ([4]; listed as scutellarin (1)) [s],"Solubility ([6]; in pure water, 25 °C, UV spectrophotometry) [µg/mL]"
"O=C(O)[C@H]1O[C@@H](Oc2cc3oc(-c4ccc(O)cc4)cc(=O)c3c(O)c2O)[C@H](O)[C@@H](O)[C@@H]1O [Scutellarin (1), 4′,5,6-trihydroxyflavone-7-glucuronide]",17.9,,,23.25 ± 1.55 s,,6.41 ± 0.15 g/L,,33.78 ± 2.32 s,,6.25 ± 0.08 s,,23.25,6.41,33.78,14.4 ± 0.17,6.25,7.62
